These are literature values, as cited in patent US11975015B2, “Methods for treating degenerative disc disease and chronic lower back pain” (ECM Biologics, Inc., priority 2017, dated 2024).

For the series, the system named is chronic low back pain (CLBP). The note with it: amoxicillin 500 mg-clavulanic acid 125 mg three times a day for 100 days; Albert 2013, Palazzo 2017.

Turning to amoxicillin-clavulanic acid, the “treatment outcome in CLBP patients” value is given as “mixed results”.
